The molecules below were run against T1, Receptor-interacting serine/threonine-protein kinase 1 (Homo sapiens, UniProt Q13546) (assay: Inhibitory Activity Assay).
T1 sequence (Q13546 whole entry): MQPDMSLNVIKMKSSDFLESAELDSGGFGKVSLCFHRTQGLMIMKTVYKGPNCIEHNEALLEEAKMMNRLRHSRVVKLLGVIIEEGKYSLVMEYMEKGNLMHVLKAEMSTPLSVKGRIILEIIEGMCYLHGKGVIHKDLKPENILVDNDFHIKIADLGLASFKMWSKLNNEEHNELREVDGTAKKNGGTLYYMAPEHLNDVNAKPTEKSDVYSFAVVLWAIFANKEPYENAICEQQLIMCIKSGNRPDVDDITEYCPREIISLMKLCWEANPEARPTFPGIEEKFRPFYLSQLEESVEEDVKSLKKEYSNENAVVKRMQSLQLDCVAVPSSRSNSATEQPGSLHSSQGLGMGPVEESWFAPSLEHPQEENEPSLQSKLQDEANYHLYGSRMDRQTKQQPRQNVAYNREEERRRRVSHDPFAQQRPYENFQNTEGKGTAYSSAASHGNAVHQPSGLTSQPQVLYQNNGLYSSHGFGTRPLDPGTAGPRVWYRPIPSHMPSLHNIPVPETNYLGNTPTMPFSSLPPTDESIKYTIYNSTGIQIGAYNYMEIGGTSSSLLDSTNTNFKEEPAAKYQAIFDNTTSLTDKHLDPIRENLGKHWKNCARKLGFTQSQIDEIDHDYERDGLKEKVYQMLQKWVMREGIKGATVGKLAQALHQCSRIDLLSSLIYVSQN
Method: The compound of the present invention and the control compound were dissolved in the assay buffer (50 mM Hepes pH 7.5, 50 mM NaCl, 30 mM MgCl2, 1 mM DTT, 0.02% CHAPS, 0.5 mg/mL BSA), and diluted in a ratio of 1:1.5 using a 22-point titration (high concentration 2 μM), and then added to a 384-well plate. […] After completion of the reaction, 5 μL of ADP-Glo reagent containing 0.02% CHAPS was added to each well and incubated at room temperature for 1 h to terminate the kinase reaction and use up all remaining ATP. Then, 5 μL of ADP-Glo detection solution containing 0.02% CHAPS was added to each well and incubated at room temperature for 30 min to measure the emittance intensity.

Row | SMILES | IC50
1 | C#CCN1CCN(CC#Cc2ccc3c(c2)N(C)C(=O)[C@@H](NC(=O)c2ncc(Cc4ccccc4)o2)[C@@H](C)O3)CC1 [US20240270732, Compound I-43] | 0.0127 µM
2 | C#Cc1ccc2c(c1)N(C)C(=O)[C@@H](NC(=O)c1nc(Cc3ccccc3)n[nH]1)[C@@H](C)O2 [US20240270732, Compound I-119] | 0.00981 µM
3 | CN(CCCC#Cc1ccc2c(c1)N(C)C(=O)[C@@H](NC(=O)c1ncn(Cc3ccccc3)n1)CO2)CCCC#Cc1ccc2c(c1)N(C)C(=O)[C@@H](NC(=O)c1ncn(Cc3ccccc3)n1)CO2 [US20240270732, Compound I-98] | 0.017 µM
4 | C[C@H]1Oc2ccc(C#CCOCCOCCOCCOCCOCC#Cc3ccc4c(c3)N(C)C(=O)[C@@H](NC(=O)c3ncn(Cc5ccccc5)n3)CO4)cc2N(C)C(=O)[C@H]1NC(=O)c1ncn(Cc2ccccc2)n1 [US20240270732, Compound I-86] | 0.00791 µM
5 | C#CCN1CCN(CC#Cc2ccc3c(c2)NC(=O)[C@@H](NC(=O)c2n[nH]c(Cc4ccccc4)n2)CO3)CC1 [US20240270732, Compound I-20] | 0.00944 µM
6 | C[C@H]1Oc2ccc(C#CCN3CCN(CC#Cc4ccc5c(c4)N(C)C(=O)[C@@H](NC(=O)c4ncn(Cc6ccccc6)n4)CO5)CC3)cc2N(C)C(=O)[C@H]1NC(=O)c1ncn(Cc2ccccc2)n1 [US20240270732, Compound I-31] | 0.00295 µM
7 | C[C@H]1Oc2ccc(C#CCN3CCN(CC#Cc4ccc5c(c4)N(C)C(=O)[C@@H](NC(=O)c4cn(Cc6ccccc6)cn4)CO5)CC3)cc2N(C)C(=O)[C@H]1NC(=O)c1n[nH]c(Cc2ccccc2)n1 [US20240270732, Compound I-9] | 0.00872 µM
8 | C#CCN1CCN(CC#Cc2ccc3c(c2)N(C)C(=O)[C@@H](NC(=O)c2n[nH]c(Cc4ccccc4)n2)[C@H](C)O3)CC1 [US20240270732, Compound I-18] | 0.0577 µM
9 | C[C@H]1Oc2ccc(C#CCCCN(C)CCCC#Cc3ccc4c(c3)N(C)C(=O)[C@@H](NC(=O)c3ncn(Cc5ccccc5)n3)[C@@H](C)O4)cc2N(C)C(=O)[C@H]1NC(=O)c1ncn(Cc2ccccc2)n1 [US20240270732, Compound I-97] | 0.0183 µM
10 | C[C@H]1Oc2ccc(C#CCN3CCN(CC#Cc4ccc5c(c4)N(C)C(=O)[C@@H](NC(=O)c4cn(Cc6ccccc6)nn4)[C@@H](C)O5)CC3)cc2N(C)C(=O)[C@H]1NC(=O)c1cn(Cc2ccccc2)nn1 [US20240270732, Compound I-54] | 0.0147 µM
11 | C#CCN1CCN(CC#Cc2ccc3c(c2)N(C)C(=O)[C@@H](NC(=O)c2noc(Cc4ccccc4)n2)[C@@H](C)O3)CC1 [US20240270732, Compound I-51] | 0.0159 µM
12 | CN1C(=O)[C@@H](NC(=O)c2n[nH]c(Cc3ccccc3)n2)COc2ccc(C#CCN3CCN(CC#Cc4ccc5c(c4)N(C)C(=O)[C@@H](NC(=O)c4n[nH]c(Cc6ccccc6)n4)CO5)CC3)cc21 [US20240270732, Compound I-11] | 0.00196 µM
13 | C#CCN1CCN(CC#Cc2ccc3c(c2)N(C)C(=O)[C@@H](NC(=O)c2cnn(Cc4ccccc4)c2)[C@@H](C)O3)CC1 [US20240270732, Compound I-47] | 0.0136 µM
14 | C[C@H]1Oc2ccc(C#CCN3CCN(CC#Cc4ccc5c(c4)N(C)C(=O)[C@@H](NC(=O)c4n[nH]c(Cc6cccc(N)c6)n4)[C@@H](C)O5)CC3)cc2N(C)C(=O)[C@H]1NC(=O)c1n[nH]c(Cc2cccc(N)c2)n1 [US20240270732, Compound I-72] | 0.0221 µM
15 | O=C(N[C@H]1COc2ccc(C#CCN3CCN(CC#Cc4ccc5c(c4)NC(=O)[C@@H](NC(=O)c4ncn(Cc6ccccc6)n4)CO5)CC3)cc2NC1=O)c1ncn(Cc2ccccc2)n1 [US20240270732, Compound I-42] | 0.00503 µM
16 | C[C@H]1Oc2ccc(C#CCN3CCN(CC#Cc4ccc5c(c4)N(C)C(=O)[C@@H](NC(=O)c4cn(Cc6ccccc6)cn4)CO5)CC3)cc2N(C)C(=O)[C@H]1NC(=O)c1ncn(Cc2ccccc2)n1 [US20240270732, Compound I-28] | 0.00459 µM
17 | C[C@H]1Oc2ccc(C#CCCCN(C)CCCC#Cc3ccc4c(c3)N(C)C(=O)[C@@H](NC(=O)c3n[nH]c(Cc5ccccc5)n3)[C@@H](C)O4)cc2N(C)C(=O)[C@H]1NC(=O)c1n[nH]c(Cc2ccccc2)n1 [US20240270732, Compound I-95] | 0.0198 µM
